ChEMBL document CHEMBL3526000 (Drug Metab Dispos, 2012)

Columns and labels:
[1] = target: T1, UDP-glucuronosyltransferase 1A6 (Homo sapiens, UniProt P19224); assay: Drug metabolism assessed as recombinant human UGT1A6 assessed as N-glucuronidation at 100 uM incubated for 60 mins by LC-MS/MS analysis; type: ADME; details: recombinant enzyme, 1 h
T1 sequence (P19224 whole entry): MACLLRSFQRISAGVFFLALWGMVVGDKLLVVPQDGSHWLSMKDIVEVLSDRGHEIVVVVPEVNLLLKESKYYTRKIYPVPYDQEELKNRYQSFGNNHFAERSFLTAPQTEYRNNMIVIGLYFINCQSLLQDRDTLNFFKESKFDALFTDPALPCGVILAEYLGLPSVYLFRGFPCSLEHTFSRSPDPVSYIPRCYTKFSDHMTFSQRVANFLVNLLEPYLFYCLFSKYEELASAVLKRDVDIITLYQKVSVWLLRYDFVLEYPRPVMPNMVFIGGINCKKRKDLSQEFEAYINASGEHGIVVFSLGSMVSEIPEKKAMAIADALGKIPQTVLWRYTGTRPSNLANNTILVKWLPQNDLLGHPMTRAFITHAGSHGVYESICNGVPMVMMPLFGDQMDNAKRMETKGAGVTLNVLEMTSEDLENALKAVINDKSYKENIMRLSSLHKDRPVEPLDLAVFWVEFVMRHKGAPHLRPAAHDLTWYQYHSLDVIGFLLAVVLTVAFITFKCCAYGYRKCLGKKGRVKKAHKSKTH

[2] = target: T2, UDP-glucuronosyltransferase 2B15 (Homo sapiens, UniProt P54855); assay: Drug metabolism assessed as recombinant human UGT2B15 assessed as N-glucuronidation at 100 uM incubated for 60 mins by LC-MS/MS analysis; type: ADME; details: recombinant enzyme, 1 h
T2 sequence (P54855 whole entry): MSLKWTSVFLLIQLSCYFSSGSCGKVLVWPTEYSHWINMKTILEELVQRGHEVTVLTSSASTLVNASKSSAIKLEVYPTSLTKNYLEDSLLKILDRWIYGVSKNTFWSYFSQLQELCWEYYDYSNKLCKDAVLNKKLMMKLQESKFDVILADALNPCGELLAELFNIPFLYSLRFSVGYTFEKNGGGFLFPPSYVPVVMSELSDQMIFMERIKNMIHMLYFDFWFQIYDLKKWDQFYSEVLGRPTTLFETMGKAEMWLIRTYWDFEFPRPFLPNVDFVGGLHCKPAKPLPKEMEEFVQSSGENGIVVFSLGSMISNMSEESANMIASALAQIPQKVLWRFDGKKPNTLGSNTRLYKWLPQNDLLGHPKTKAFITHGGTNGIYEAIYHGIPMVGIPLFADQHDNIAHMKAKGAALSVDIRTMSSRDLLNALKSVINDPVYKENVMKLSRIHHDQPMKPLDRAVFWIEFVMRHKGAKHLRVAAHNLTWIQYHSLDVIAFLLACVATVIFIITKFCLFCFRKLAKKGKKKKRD

[3] = target: T3, UDP-glucuronosyltransferase 2B17 (Homo sapiens, UniProt O75795); assay: Drug metabolism assessed as recombinant human UGT2B17 assessed as O-glucuronidation at 100 uM incubated for 60 mins by LC-MS/MS analysis; type: ADME; details: recombinant enzyme, 1 h
T3 sequence (O75795 whole entry): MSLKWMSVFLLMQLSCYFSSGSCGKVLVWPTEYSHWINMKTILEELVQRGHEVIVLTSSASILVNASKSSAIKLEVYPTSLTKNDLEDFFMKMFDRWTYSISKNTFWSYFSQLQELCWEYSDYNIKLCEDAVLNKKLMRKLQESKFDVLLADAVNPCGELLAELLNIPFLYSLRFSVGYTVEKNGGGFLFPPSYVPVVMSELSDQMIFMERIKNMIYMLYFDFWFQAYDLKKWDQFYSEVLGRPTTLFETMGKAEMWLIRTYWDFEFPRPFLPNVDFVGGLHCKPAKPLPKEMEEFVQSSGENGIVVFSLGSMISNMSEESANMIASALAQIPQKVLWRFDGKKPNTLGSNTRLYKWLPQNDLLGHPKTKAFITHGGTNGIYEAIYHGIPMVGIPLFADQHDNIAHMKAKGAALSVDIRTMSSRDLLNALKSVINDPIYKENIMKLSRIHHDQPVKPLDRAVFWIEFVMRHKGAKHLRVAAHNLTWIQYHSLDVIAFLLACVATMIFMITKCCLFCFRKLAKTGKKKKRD

[4] = target: T4, UDP-glucuronosyltransferase 1A1 (Homo sapiens, UniProt P22309); assay: Drug metabolism assessed as recombinant human UGT1A1 assessed as N-glucuronidation at 100 uM incubated for 60 mins by LC-MS/MS analysis; type: ADME; details: recombinant enzyme, 1 h
T4 sequence (P22309 whole entry): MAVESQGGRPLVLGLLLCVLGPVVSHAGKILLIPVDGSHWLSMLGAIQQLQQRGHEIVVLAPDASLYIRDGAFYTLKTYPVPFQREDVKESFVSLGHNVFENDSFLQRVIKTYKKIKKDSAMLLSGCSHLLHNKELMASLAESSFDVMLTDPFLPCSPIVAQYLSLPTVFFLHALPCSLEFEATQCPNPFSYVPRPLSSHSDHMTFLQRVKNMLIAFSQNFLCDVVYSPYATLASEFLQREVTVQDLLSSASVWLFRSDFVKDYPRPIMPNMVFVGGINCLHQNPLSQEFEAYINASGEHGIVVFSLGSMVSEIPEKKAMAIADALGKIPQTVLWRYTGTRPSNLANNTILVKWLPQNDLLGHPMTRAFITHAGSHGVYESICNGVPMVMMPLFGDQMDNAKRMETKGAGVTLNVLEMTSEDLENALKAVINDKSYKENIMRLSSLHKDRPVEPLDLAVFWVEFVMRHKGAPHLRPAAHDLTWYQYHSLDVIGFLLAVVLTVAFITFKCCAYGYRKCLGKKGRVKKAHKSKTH

[5] = target: T5, UDP-glucuronosyltransferase 1A9 (Homo sapiens, UniProt O60656); assay: Drug metabolism assessed as recombinant human UGT1A9 assessed as O-glucuronidation measured as inhibition constant at 10 to 400 uM incubated for 60 mins by LC-MS/MS analysis
T5 sequence (O60656 whole entry): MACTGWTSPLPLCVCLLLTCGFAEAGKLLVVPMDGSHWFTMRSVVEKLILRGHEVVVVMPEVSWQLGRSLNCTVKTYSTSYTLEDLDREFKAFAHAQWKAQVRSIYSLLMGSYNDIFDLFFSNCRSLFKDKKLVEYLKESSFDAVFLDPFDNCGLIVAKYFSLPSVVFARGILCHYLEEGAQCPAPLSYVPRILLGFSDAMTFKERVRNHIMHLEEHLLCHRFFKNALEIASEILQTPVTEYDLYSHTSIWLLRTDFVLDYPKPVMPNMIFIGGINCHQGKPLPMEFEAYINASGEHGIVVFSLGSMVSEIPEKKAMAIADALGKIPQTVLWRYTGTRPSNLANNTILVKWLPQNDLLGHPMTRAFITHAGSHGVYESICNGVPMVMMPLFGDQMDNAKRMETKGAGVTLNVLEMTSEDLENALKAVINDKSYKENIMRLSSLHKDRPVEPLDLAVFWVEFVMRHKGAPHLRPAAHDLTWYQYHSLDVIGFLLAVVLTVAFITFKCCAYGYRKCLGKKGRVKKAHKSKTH

[6] = Drug excretion in human urine; type: ADME; details: read-out: Drug excretion

Drug metabolism [1]: metabolite_not_detected | Drug metabolism [2]: metabolite_not_detected | Drug metabolism [3]: metabolite_not_detected | Drug metabolism [4]: metabolite_not_detected | Ki [5]: 344 µM | dose excreted [6]: 1%
Structure (SMILES): O=C(CCCN1CCC(O)(c2ccc(Cl)cc2)CC1)c1ccc(F)cc1 [HALOPERIDOL]
